Data from patent publication US20020039597A1, “STABILIZED COMPOSITIONS CONTAINING BENZIMIDAZOLE-TYPE COMPOUNDS” (priority 1998, published 2002).

Tests used:
[1] = Compatibility test of sodium rabeprazole with additives (residual content by HPLC, visual coloring); type: physicochemical; details: 1 week, cold place sample = 100%; for residual content of sodium rabeprazole, 40° C.-75% RH: 40° C. 75% relative humidity
Procedure: 50 mg sodium rabeprazole and 450 mg additives shown in the table below were mixed in a mortar. The mixture was introduced into a transparent glass vial and stored in a cold place or at 60° C. or 40° C. under 75% relative humidity for 1 week and their content was determined by high performance liquid chromatography. Assuming that the content of the sample stored in the cold place is 100%, the degrees of the residual content under the respective conditions are shown in Tables 1 through 3. Further, their coloring changes were visually evaluated. The sodium rabeprazole used was amorphous in Table land crystalline in Tables 2 and 3. In Table 1, low-substituted hydroxypropyl cellulose (expressed as L-HPC) used as a disintegrating agent in addition to amorphous sodium rabeprazole was blended in the control; in Table 2, a sample further incorporating aluminum hydroxide (expressed as Al(OH) 3 in the table) i.e. an alkaline inorganic salt used as an antacid agent was used; and in Table 3, a sample incorporating polyvinyl pyrrolidone (expressed as PVP in the table) was used as a binder.

[2] = Amount of peroxide in crospovidone mixed with sodium sulfite (Japanese Pharmacopoeia test method); type: physicochemical
Procedure: Further, 1 g crospovidone containing 201 ppm peroxide was accurately taken, and sodium sulfite (amounts: 4 levels i.e. no addition, 0.02%, 0.05% and 0.10%) was added thereto and mixed well, and the amount of the peroxide in the mixture was determined according to a test method described in the Japanese Pharmacopoeia.

[3] = Table 1, amorphous sodium rabeprazole 50 mg + 450 mg additive
[4] = Table 2, crystalline sodium rabeprazole 50 mg + 450 mg additive
[5] = Table 3, crystalline sodium rabeprazole 50 mg + 450 mg additive

Q: For COCCCOc1ccnc(C[S+]([O-])c2nc3ccccc3[nH]2)c1C (stereo not drawn) [sodium rabeprazole (amorphous), sodium rabeprazole], which “residual content of sodium rabeprazole, 40° C.-75% RH” value (“residual content … 40° C.-75% RH” for short) [1, 3] is on record?
A: 93.9%

Q: What about the “residual content of sodium rabeprazole, 60° C.” value (shortened to “residual content … 60° C.”) [1, 3] of the same compound?
A: 99.1%

Q: With COCCCOc1ccnc(C[S+]([O-])c2nc3ccccc3[nH]2)c1C (stereo not drawn) [sodium rabeprazole (crystalline), sodium rabeprazole] as the compound, how does the “residual content … 40° C.-75% RH” value [1, 4] read?
A: 91.8%

Q: And the “residual content … 60° C.” value [1, 4]?
A: 99.8%

Q: And the “residual content … 40° C.-75% RH” value [1, 5]?
A: 86.9%

Q: And the “residual content … 60° C.” value [1, 5]?
A: 97.3%

Q: For O=S([O-])[O-].[Na+].[Na+] [sodium sulfite], which “amount of the peroxide in the composition” value (“amount of the peroxide” for short) ([2]; 0.02% sodium sulfite added to 1 g crospovidone containing 201 ppm peroxide) is on record?
A: 184 ppm

Q: What about the “amount of the peroxide” value ([2]; 0.05% sodium sulfite added to 1 g crospovidone containing 201 ppm peroxide) of the same compound?
A: 108 ppm

Q: And the “amount of the peroxide” value ([2]; 0.10% sodium sulfite added to 1 g crospovidone containing 201 ppm peroxide)?
A: 0 ppm
